# Source: the supplement of paper PMC10307832
# Tests used:
# Experiment in all cases: relative viability (nuclei count vs DMSO), 5 days (fraction); higher = more cells survive
# [1] = tested on: CAL-12T
# In short: (§1)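 For relative viability, nuclei counts in treated wells were divided by those in vehicle wells. Lung cancer cell lines had been pin-tool dosed in 1536-well plates the day after seeding and cultured for 5 days, then fixed and stained in one step (final 0.05% Triton X-100, 1% formaldehyde, 1 ug/ml Hoechst) and imaged at 4×. Doses were one drug alone or a fixed anchor-drug dose plus five library-drug doses (not always all listed) in √10 steps, and values are duplicate-plate medians.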
# [2] = tested on: EKVX
# In short: as §1
# [3] = tested on: H3255
# In short: as §1
# [4] = tested on: HCC-15
# In short: as §1
# [5] = tested on: HCC-827
# In short: as §1
# [6] = tested on: LCLC-97TM1
# In short: as §1
# [7] = tested on: LK-2
# In short: as §1
# [8] = tested on: NCI-H1355
# In short: as §1
# [9] = tested on: NCI-H1563
# In short: as §1
# [10] = tested on: NCI-H1650
# In short: as §1
# [11] = tested on: NCI-H1734
# In short: as §1
# [12] = tested on: NCI-H1755
# In short: as §1
# [13] = tested on: NCI-H1975
# In short: as §1
# [14] = tested on: NCI-H2228
# In short: as §1
# [15] = tested on: NCI-H2342
# In short: as §1
# [16] = tested on: NCI-H2405
# In short: as §1
# [17] = tested on: NCI-H322M
# In short: as §1
# [18] = tested on: NCI-H520
# In short: as §1
# [19] = tested on: NCI-H661
# In short: as §1
# [20] = tested on: PC-14
# In short: as §1
# [21] = tested on: PC-3 [JPC-3]
# In short: as §1
# [22] = tested on: RERF-LC-KJ
# In short: as §1
smiles,measurement,setting,value
COc1nc(C)cnc1NS(=O)(=O)c1cccnc1-c1ccc(-c2nnco2)cc1 [Zibotentan] + Nc1nc2[nH]cc(CCc3ccc(C(=O)N[C@@H](CCC(=O)O)C(=O)O)cc3)c2c(=O)[nH]1 [Pemetrexed] (partner 0.2 µM),relative viability,[1]; first compound 0.08 µM,1.28
same,relative viability,[1]; first compound 0.253 µM,1.06
same,relative viability,[1]; first compound 0.8 µM,1.23
same,relative viability,[1]; first compound 2.53 µM,1.16
same,relative viability,[2]; first compound 0.08 µM,0.347
same,relative viability,[2]; first compound 0.253 µM,0.384
same,relative viability,[2]; first compound 0.8 µM,0.372
same,relative viability,[2]; first compound 2.53 µM,0.463
same,relative viability,[3]; first compound 0.08 µM,0.635
same,relative viability,[3]; first compound 0.253 µM,0.549
same,relative viability,[3]; first compound 0.8 µM,0.575
same,relative viability,[3]; first compound 2.53 µM,0.56
same,relative viability,[4]; first compound 0.08 µM,0.221
same,relative viability,[4]; first compound 0.253 µM,0.22
same,relative viability,[4]; first compound 0.8 µM,0.217
same,relative viability,[4]; first compound 2.53 µM,0.227
same,relative viability,[5]; first compound 0.08 µM,0.262
same,relative viability,[5]; first compound 0.253 µM,0.272
same,relative viability,[5]; first compound 0.8 µM,0.241
same,relative viability,[5]; first compound 2.53 µM,0.294
same,relative viability,[6]; first compound 0.08 µM,0.192
same,relative viability,[6]; first compound 0.253 µM,0.181
same,relative viability,[6]; first compound 0.8 µM,0.154
same,relative viability,[6]; first compound 2.53 µM,0.175
same,relative viability,[7]; first compound 0.08 µM,0.299
same,relative viability,[7]; first compound 0.253 µM,0.252
same,relative viability,[7]; first compound 0.8 µM,0.302
same,relative viability,[7]; first compound 2.53 µM,0.208
same,relative viability,[8]; first compound 0.08 µM,1.04
same,relative viability,[8]; first compound 0.253 µM,1.05
same,relative viability,[8]; first compound 0.8 µM,1.03
same,relative viability,[8]; first compound 2.53 µM,1.07
same,relative viability,[9]; first compound 0.08 µM,0.827
same,relative viability,[9]; first compound 0.253 µM,0.703
same,relative viability,[9]; first compound 0.8 µM,0.757
same,relative viability,[9]; first compound 2.53 µM,0.66
same,relative viability,[10]; first compound 0.08 µM,0.364
same,relative viability,[10]; first compound 0.8 µM,0.387
same,relative viability,[10]; first compound 2.53 µM,0.402
same,relative viability,[11]; first compound 0.08 µM,0.404
same,relative viability,[11]; first compound 0.253 µM,0.423
same,relative viability,[11]; first compound 0.8 µM,0.396
same,relative viability,[11]; first compound 2.53 µM,0.44
same,relative viability,[12]; first compound 0.08 µM,0.44
same,relative viability,[12]; first compound 0.253 µM,0.453
same,relative viability,[12]; first compound 0.8 µM,0.383
same,relative viability,[12]; first compound 2.53 µM,0.455
same,relative viability,[13]; first compound 0.08 µM,0.308
same,relative viability,[13]; first compound 0.253 µM,0.281
same,relative viability,[13]; first compound 0.8 µM,0.289
same,relative viability,[13]; first compound 2.53 µM,0.299
same,relative viability,[14]; first compound 0.08 µM,0.323
same,relative viability,[14]; first compound 0.253 µM,0.33
same,relative viability,[14]; first compound 0.8 µM,0.291
same,relative viability,[14]; first compound 2.53 µM,0.346
same,relative viability,[15]; first compound 0.08 µM,0.769
same,relative viability,[15]; first compound 0.253 µM,0.729
same,relative viability,[15]; first compound 0.8 µM,0.761
same,relative viability,[15]; first compound 2.53 µM,0.797
same,relative viability,[16]; first compound 0.08 µM,1.15
same,relative viability,[16]; first compound 0.253 µM,0.975
same,relative viability,[16]; first compound 0.8 µM,1.06
same,relative viability,[16]; first compound 2.53 µM,1.21
same,relative viability,[17]; first compound 0.08 µM,0.661
same,relative viability,[17]; first compound 0.253 µM,0.553
same,relative viability,[17]; first compound 0.8 µM,0.526
same,relative viability,[17]; first compound 2.53 µM,0.65
same,relative viability,[18]; first compound 0.08 µM,0.626
same,relative viability,[18]; first compound 0.253 µM,0.665
same,relative viability,[18]; first compound 0.8 µM,0.682
same,relative viability,[18]; first compound 2.53 µM,0.695
same,relative viability,[19]; first compound 0.08 µM,0.931
same,relative viability,[19]; first compound 0.253 µM,0.881
same,relative viability,[19]; first compound 0.8 µM,0.873
same,relative viability,[19]; first compound 2.53 µM,0.912
same,relative viability,[20]; first compound 0.08 µM,0.143
same,relative viability,[20]; first compound 0.253 µM,0.12
same,relative viability,[20]; first compound 0.8 µM,0.129
same,relative viability,[20]; first compound 2.53 µM,0.144
same,relative viability,[21]; first compound 0.08 µM,1.51
same,relative viability,[21]; first compound 0.253 µM,0.972
same,relative viability,[21]; first compound 0.8 µM,1.01
same,relative viability,[21]; first compound 2.53 µM,1.27
same,relative viability,[22]; first compound 0.08 µM,0.5
same,relative viability,[22]; first compound 0.253 µM,0.464
same,relative viability,[22]; first compound 0.8 µM,0.438
same,relative viability,[22]; first compound 2.53 µM,0.481
